Experimental data as given in PubChem BioAssay AID280 (DTP/NCI, 2004).
Several values for one entry are separate records, joined by “and”; a condition that tells them apart may be missing. Identical values can stand only once. Inconclusive results and toxic doses are left out. The calls were made as follows: active = survival T/C of 150% or more; inactive = T/C below 125% in these data.

Test system: nude mice, LOX melanoma ip, survival T/C
Assay: NCI In Vivo Anticancer Drug Screen. Data for tumor model Human Amelanotic Melanoma (LOX) (intraperitoneal) in NU/NU BALB/C (nude) mice
Settings: endpoint: median survival time, schedule: Q04DX003 (ip), higher = longer survival
Protocol: The antitumor activity of compounds was measured in mice bearing transplantable tumors. Survival or tumor size were measured and the results are expressed as the measurement made in the treated group (T) divided by the measurement made in the vehicle treated control group (C). The tumor model used in this assay is Human Amelanotic Melanoma (LOX) (intraperitoneal) in NU/NU BALB/C (nude) mice

[1] = dose: 75.0 mg/kg/injection, vehicle: Klucel (hydroxypropylcellulose) (HPC)
[2] = dose: 18.75 mg/kg/injection, vehicle: water
[3] = dose: 37.5 mg/kg/injection, vehicle: water
[4] = dose: 75.0 mg/kg/injection, vehicle: water
[5] = dose: 150.0 mg/kg/injection, vehicle: water
[6] = dose: 50.0 mg/kg/injection, vehicle: saline with Tween-80
[7] = dose: 100.0 mg/kg/injection, vehicle: saline with Tween-80
[8] = dose: 75.0 mg/kg/injection, vehicle: saline with Tween-80
[9] = dose: 300.0 mg/kg/injection, vehicle: saline with Tween-80

Measured: T/C

COc1cc2c(c(OC)c1O)-c1ccc(OC)c(=O)cc1[C@@H](NC(=O)C(F)(F)F)CC2
inactive: dose: 2.5 mg/kg/injection, vehicle: Klucel (hydroxypropylcellulose) (HPC) 122 % of control

O=NNc1ccc(Cl)cn1
inactive: dose: 2.5 mg/kg/injection, vehicle: water 105 % of control | dose: 3.13 mg/kg/injection, vehicle: water 111 % of control | dose: 5.0 mg/kg/injection, vehicle: water 101 % of control | dose: 6.25 mg/kg/injection, vehicle: water 112 % of control | dose: 10.0 mg/kg/injection, vehicle: water 118 % of control | dose: 20.0 mg/kg/injection, vehicle: water 124 % of control

C=C1c2cccc(O)c2C(O)=C2C(=O)[C@]3(O)C(O)=C(C(N)=O)C(=O)[C@@H](N(C)C)[C@@H]3[C@@H](O)[C@H]12
inactive: dose: 37.5 mg/kg/injection, vehicle: Klucel (hydroxypropylcellulose) (HPC) 94 % of control | [1] 91 % of control | dose: 300.0 mg/kg/injection, vehicle: Klucel (hydroxypropylcellulose) (HPC) 92 % of control

Oc1cccc2ccccc12
inactive: [2] 98 % of control | [3] 102 % of control | [4] 106 % of control | [5] 102 % of control

COc1cccc2c1C(=O)C1=C(C2=O)c2c(O)cc(CO)cc2C(O)C1O (configuration not stated)
inactive: dose: 6.25 mg/kg/injection, vehicle: saline + Tween-80 + alcohol 98 % of control | dose: 12.5 mg/kg/injection, vehicle: saline + Tween-80 + alcohol 109 % of control | dose: 25.0 mg/kg/injection, vehicle: saline + Tween-80 + alcohol 112 % of control | dose: 50.0 mg/kg/injection, vehicle: saline + Tween-80 + alcohol 109 % of control

Cc1ccccc1N=C(c1ccccc1)C1C(=O)c2ccccc2C1=O
inactive: dose: 75.0 mg/kg/injection, vehicle: DMSO 101 % of control | dose: 75.0 mg/kg/injection, vehicle: other 105 % of control | dose: 150.0 mg/kg/injection, vehicle: DMSO 109 % of control | dose: 150.0 mg/kg/injection, vehicle: other 93 % of control | dose: 300.0 mg/kg/injection, vehicle: DMSO 101 % of control | dose: 300.0 mg/kg/injection, vehicle: other 103 % of control | dose: 600.0 mg/kg/injection, vehicle: DMSO 103 % of control | dose: 600.0 mg/kg/injection, vehicle: other 103 % of control | dose: 1200.0 mg/kg/injection, vehicle: DMSO 99 % of control | dose: 1200.0 mg/kg/injection, vehicle: other 102 % of control

CC1c2ccccc2CC(CCN(C)C)c2ccccc21 (configuration not stated)
inactive: dose: 12.5 mg/kg/injection, vehicle: saline with Tween-80 109 % of control | dose: 25.0 mg/kg/injection, vehicle: saline with Tween-80 114 % of control | [6] 114 % of control | [7] 109 % of control

COC(=O)C1C2CCCN2OC1(C)CO (configuration not stated)
inactive: dose: 30.0 mg/kg/injection, vehicle: saline 103 % of control | dose: 60.0 mg/kg/injection, vehicle: saline 97 % of control | dose: 62.5 mg/kg/injection, vehicle: saline with Tween-80 111 % of control | dose: 120.0 mg/kg/injection, vehicle: saline 99 % of control | dose: 240.0 mg/kg/injection, vehicle: saline 89 % of control | dose: 250.0 mg/kg/injection, vehicle: saline with Tween-80 101 % of control | dose: 500.0 mg/kg/injection, vehicle: saline with Tween-80 100 % of control | dose: 1000.0 mg/kg/injection, vehicle: saline with Tween-80 98 % of control

CNC(=O)OCc1nc(SC)n(C)c1COC(=O)NC
active: dose: 51.2 mg/kg/injection, vehicle: water 179 % of control | dose: 57.5 mg/kg/injection, vehicle: saline 156 % of control | dose: 76.7 mg/kg/injection, vehicle: water 229 % of control | dose: 115.0 mg/kg/injection, vehicle: saline 234 % of control | dose: 115.0 mg/kg/injection, vehicle: water 354 % of control

NC(=O)CCC(N)C(=O)O (configuration not stated)
inactive: dose: 75.0 mg/kg/injection, vehicle: suspension in saline 101 % of control | dose: 150.0 mg/kg/injection, vehicle: suspension in saline 90 % of control | dose: 300.0 mg/kg/injection, vehicle: suspension in saline 95 % of control | dose: 600.0 mg/kg/injection, vehicle: suspension in saline 102 % of control | dose: 1200.0 mg/kg/injection, vehicle: suspension in saline 101 % of control

O=C(Nc1cc(Cl)ccc1C(=O)O)c1cccc(C[n+]2ccccc2)c1
inactive: dose: 37.5 mg/kg/injection, vehicle: saline with Tween-80 94 % of control and 100 % of control | [8] 105 % of control and 90 % of control | [9] 89 % of control

CC1=C(C(N)=O)C(c2ccccc2)NC(=S)N1 (configuration not stated)
inactive: dose: 25.0 mg/kg/injection, vehicle: Klucel (hydroxypropylcellulose) (HPC) 96 % of control | dose: 50.0 mg/kg/injection, vehicle: Klucel (hydroxypropylcellulose) (HPC) 98 % of control | dose: 100.0 mg/kg/injection, vehicle: Klucel (hydroxypropylcellulose) (HPC) 97 % of control | dose: 200.0 mg/kg/injection, vehicle: Klucel (hydroxypropylcellulose) (HPC) 95 % of control | dose: 400.0 mg/kg/injection, vehicle: Klucel (hydroxypropylcellulose) (HPC) 86 % of control

Cc1cc(Nc2ccc3c(c2)OCO3)c2cc3c(cc2n1)OCO3
inactive: [1] 106 % of control
active: dose: 600.0 mg/kg/injection, vehicle: Klucel (hydroxypropylcellulose) (HPC) 152 % of control and 158 % of control

S=C(NCNC(=S)c1ccncc1)c1ccncc1
inactive: [8] 104 % of control | dose: 150.0 mg/kg/injection, vehicle: saline with Tween-80 103 % of control | [9] 106 % of control | dose: 600.0 mg/kg/injection, vehicle: saline with Tween-80 87 % of control

O=NNc1ccc2cccnc2n1
active: [3] 157 % of control | [4] 192 % of control | [5] 214 % of control
inactive: dose: 9.38 mg/kg/injection, vehicle: water 99 % of control | [2] 120 % of control

CC1OC2CC(O)C1(O)C1=C2C(O)=C(C(N)=O)C(=N)C1=O (configuration not stated)
inactive: dose: 0.32 mg/kg/injection, vehicle: saline + Tween-80 + alcohol 106 % of control | dose: 0.63 mg/kg/injection, vehicle: saline + Tween-80 + alcohol 99 % of control | dose: 1.25 mg/kg/injection, vehicle: saline + Tween-80 + alcohol 106 % of control | dose: 2.5 mg/kg/injection, vehicle: saline + Tween-80 + alcohol 102 % of control | dose: 5.0 mg/kg/injection, vehicle: saline + Tween-80 + alcohol 102 % of control

ClC1(Cl)Cc2ccccc21
inactive: [6] 109 % of control | [7] 120 % of control | dose: 400.0 mg/kg/injection, vehicle: saline with Tween-80 120 % of control
